Laboratory results published in ChEMBL document CHEMBL6083243, “Design, synthesis and biological evaluation of sulfonylurea derivatives as NLRP3 inflammasome inhibitors” (Bioorg Med Chem Lett, 2024).
pIC50: −log10 of the molar value. The source made the active and inactive calls. The rule behind the calls is not given here.

How the values were obtained:
[1] = biological target: NACHT, LRR and PYD domains-containing protein 3 (Mus musculus, UniProt Q8R4B8); test: Inhibition of NLRP3 inflammasome activation in LPS/Nigericin stimulated mouse BMDM cells assessed as reduction in cleaved-IL-1 beta level by ELISA method; format: cell-based
NACHT, LRR and PYD domains-containing protein 3, sequence (Q8R4B8 whole entry, the tested form may be a part): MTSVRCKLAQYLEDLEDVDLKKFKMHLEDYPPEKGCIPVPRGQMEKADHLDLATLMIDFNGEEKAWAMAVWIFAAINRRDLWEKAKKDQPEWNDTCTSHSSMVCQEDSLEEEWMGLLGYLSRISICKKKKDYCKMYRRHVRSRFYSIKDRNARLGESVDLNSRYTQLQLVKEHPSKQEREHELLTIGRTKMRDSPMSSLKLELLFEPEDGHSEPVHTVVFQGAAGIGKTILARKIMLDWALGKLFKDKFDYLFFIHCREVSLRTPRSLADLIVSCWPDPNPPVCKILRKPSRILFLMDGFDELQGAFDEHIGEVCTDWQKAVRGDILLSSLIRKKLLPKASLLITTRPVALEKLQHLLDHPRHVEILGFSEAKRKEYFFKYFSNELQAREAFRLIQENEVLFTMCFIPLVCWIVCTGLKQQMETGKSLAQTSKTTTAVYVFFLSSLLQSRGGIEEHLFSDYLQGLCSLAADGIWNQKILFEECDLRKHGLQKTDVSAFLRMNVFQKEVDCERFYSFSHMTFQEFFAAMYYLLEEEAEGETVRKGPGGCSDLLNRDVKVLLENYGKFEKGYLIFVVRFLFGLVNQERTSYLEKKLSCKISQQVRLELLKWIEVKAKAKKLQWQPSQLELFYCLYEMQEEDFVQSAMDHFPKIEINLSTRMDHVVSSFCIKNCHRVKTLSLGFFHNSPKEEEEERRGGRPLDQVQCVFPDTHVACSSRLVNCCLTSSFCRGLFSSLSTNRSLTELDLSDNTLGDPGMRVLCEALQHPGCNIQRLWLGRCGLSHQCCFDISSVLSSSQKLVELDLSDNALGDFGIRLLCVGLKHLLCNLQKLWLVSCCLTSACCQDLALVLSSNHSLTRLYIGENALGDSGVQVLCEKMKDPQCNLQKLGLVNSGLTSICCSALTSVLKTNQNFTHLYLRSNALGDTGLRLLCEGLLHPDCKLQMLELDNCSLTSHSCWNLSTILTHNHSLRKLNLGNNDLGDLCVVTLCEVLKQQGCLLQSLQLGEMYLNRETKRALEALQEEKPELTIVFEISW

BMDM = test: Effect on NLRP3 protein expression in mouse BMDM cell lysate at 0.02 to 2 uM by Western blot analysis; format: functional, subcellular; details: dose 0.02-2 µM
[2] = biological target: NACHT, LRR and PYD domains-containing protein 3 (Mus musculus) (UniProt Q8R4B8); test: Inhibition of NLRP3 inflammasome activation in LPS/Nigericin stimulated mouse BMDM cells assessed as reduction in active caspase-1 level by Western blot analysis; format: cell-based; details: dose 0.2-2 µM
NACHT, LRR and PYD domains-containing protein 3 (Mus musculus), sequence (Q8R4B8 whole entry, the tested form may be a part): as above

[3] = biological target: NACHT, LRR and PYD domains-containing protein 3 (Mus musculus) (UniProt Q8R4B8); test: Inhibition of NLRP3 inflammasome activation in LPS/Nigericin stimulated mouse BMDM cells assessed as reduction in IL-1 beta level by Western blot analysis; format: cell-based; details: dose 0.2-2 µM
Carbonic anhydrase 2 = Carbonic anhydrase 2 (Homo sapiens, UniProt P00918); test: Inhibition of Carbonic anhydrase II (unknown origin)

Work on `CC(C)c1cc(Cl)cc(C(C)C)c1NC(=O)NS(=O)(=O)c1cc(C(C)(C)O)co1` yielded a pIC50 [1] of 6.77.

For `O=C(Nc1c(Br)cc(Cl)cc1Oc1ccccc1)NS(=O)(=O)c1cc(Br)cc2c1OCC2`, the pIC50 [1] was 6.09, the Activity (BMDM) was “inactive” and the inhibition [2] was “Dose-dependent-effect”. The inhibition [3] was “Dose-dependent-effect”.

`CC(C)(O)c1coc(S(=O)(=O)NC(=O)Nc2c3c(cc4c2CCC4)CCC3)c1` showed a pIC50 [1] of 6.90 and a pIC50 (Carbonic anhydrase 2) of 4.96.
